Experimental data published in the supplement of paper PMC9938120.

Tests used:
Assay in all cases: drug sensitivity score (DSS3, normalised partial AUC of % inhibition dose-response) (DSS (score)); higher = more sensitive (stronger inhibition of viability); extreme values may be limits of the assay
FMOC03 = patient-derived mucinous ovarian cancer cells; settings: 72 h; library: FO5A; assay format: 2D, 384-well, CellTiter-Glo
Summary of the method: (§1)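 On 384-well flat clear-bottom plates carrying compounds at five concentrations across a 10,000-fold range, patient-derived ovarian cancer cells below passage 10 were incubated for 72 h at 37 °C with 5% CO2. CellTiter-Glo readout of viability was processed in Breeze. A higher drug sensitivity score, defined as the partial area under the percent-inhibition dose-response curve divided by the log of the upper asymptote, means greater sensitivity.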

FMOC28 = patient-derived low-grade serous ovarian cancer cells; settings: 72 h; library: FO5A; assay format: 2D, 384-well, CellTiter-Glo
Summary of the method: as §1

FMOC02_3 = patient-derived low-grade serous ovarian cancer cells; settings: 72 h; library: FO5A; assay format: 2D, 384-well, CellTiter-Glo
Summary of the method: as §1

FMOC27 = patient-derived low-grade serous ovarian cancer cells; settings: 72 h; library: FO5A; assay format: 2D, 384-well, CellTiter-Glo
Summary of the method: as §1

FMOC25_2 = patient-derived low-grade serous ovarian cancer cells; settings: 72 h; library: FO5A; assay format: 2D, 384-well, CellTiter-Glo
Summary of the method: as §1

FMOC14 = patient-derived high-grade serous ovarian cancer cells; settings: 72 h; library: FO5A; assay format: 2D, 384-well, CellTiter-Glo
Summary of the method: as §1

FMOC06 = patient-derived mucinous ovarian cancer cells; settings: 72 h; library: FO5A; assay format: 2D, 384-well, CellTiter-Glo
Summary of the method: as §1

FMOC11 = patient-derived high-grade serous ovarian cancer cells; settings: 72 h; library: FO5A; assay format: 2D, 384-well, CellTiter-Glo
Summary of the method: as §1

FMOC17 = patient-derived low-grade serous ovarian cancer cells; settings: 72 h; library: FO5A; assay format: 2D, 384-well, CellTiter-Glo
Summary of the method: as §1

FMOC04 = patient-derived high-grade serous ovarian cancer cells; settings: 72 h; library: FO5A; assay format: 2D, 384-well, CellTiter-Glo
Summary of the method: as §1

FMOC02_2 = patient-derived low-grade serous ovarian cancer cells; settings: 72 h; library: FO5A; assay format: 2D, 384-well, CellTiter-Glo
Summary of the method: as §1

FMOC24 = patient-derived high-grade serous ovarian cancer cells; settings: 72 h; library: FO5A; assay format: 2D, 384-well, CellTiter-Glo
Summary of the method: as §1

FMOC22 = patient-derived mucinous ovarian cancer cells; settings: 72 h; library: FO5A; assay format: 2D, 384-well, CellTiter-Glo
Summary of the method: as §1

FMOC25_1 = patient-derived low-grade serous ovarian cancer cells; settings: 72 h; library: FO4B; assay format: 2D, 384-well, CellTiter-Glo
Summary of the method: as §1

FMOC09 = patient-derived high-grade serous ovarian cancer cells; settings: 72 h; library: FO5A; assay format: 2D, 384-well, CellTiter-Glo
Summary of the method: as §1

FMOC02_1 = patient-derived low-grade serous ovarian cancer cells; settings: 72 h; library: FO5A; assay format: 2D, 384-well, CellTiter-Glo
Summary of the method: as §1

SMILES | drug sensitivity score (FMOC03) | drug sensitivity score (FMOC28) | drug sensitivity score (FMOC02_3) | drug sensitivity score (FMOC27) | drug sensitivity score (FMOC25_2) | drug sensitivity score (FMOC14) | drug sensitivity score (FMOC06) | drug sensitivity score (FMOC11) | drug sensitivity score (FMOC17) | drug sensitivity score (FMOC04) | drug sensitivity score (FMOC02_2) | drug sensitivity score (FMOC24) | drug sensitivity score (FMOC22) | drug sensitivity score (FMOC25_1) | drug sensitivity score (FMOC09) | drug sensitivity score (FMOC02_1)
CC(C)C[C@H](NC(=O)[C@@H](COC(C)(C)C)NC(=O)[C@H](Cc1ccc(O)cc1)NC(=O)[C@H](CO)NC(=O)[C@H](Cc1c[nH]c2ccccc12)NC(=O)[C@H](Cc1cnc[nH]1)NC(=O)[C@@H]1CCC(=O)N1)C(=O)N[C@@H](CCCNC(=N)N)C(=O)N1CCC[C@H]1C(=O)NNC(N)=O [Goserelin] | 0 | 0 | 0 | 0 | 0 | 0 | 0 | 0 | 0 | 0 | 0 | 0 | 0 | 0 | 0 | 0
Cc1cc(Nc2nc(N[C@@H](C)c3ncc(F)cn3)ncc2Cl)[nH]n1 [AZD1480] | 0 | 0 | 1.6 | 0 | 0.3 | 0 | 0 | 0 | 0.1 | 0 | 0.8 | 0 | 0 | 0 | 0 | 0.8
CCCS(=O)(=O)Nc1ccc(F)c(C(=O)c2c[nH]c3ncc(-c4ccc(Cl)cc4)cc23)c1F [Vemurafenib] | 3 | 2.6 | 1.8 | 0 | 1.6 | 1.3 | 0.3 | 1.6 | 1 | 0 | 1.6 | 1.65 | 2.5 | 1.7 | 0 | 3.3
O=C(O)c1ccc(O)c2ncccc12 [IOX-1] | 3 | 0 | 0 | 0 | 0 | 1.9 | 1 | 1.6 | 0 | 0 | 0.2 | 0 | 1.6 | 0 | 0 | 0
Cc1cnc(-c2ccccc2C(C)C)nc1NCc1ccc(-n2ccnn2)cc1 [ML323] | 0.9 | 0.9 | 0.2 | 0.6 | 1.7 | 0 | 0 | 0 | 0 | 0 | 3.1 | 0.8 | 0.3 | 0.6 | 0 | 0.1
CC[C@H](C)C(=O)O[C@H]1C[C@H](O)C=C2C=C[C@H](C)[C@H](CC[C@@H](O)C[C@@H](O)CC(=O)O)[C@H]21 [Pravastatin] | 0 | 0 | 0 | 0 | 0 | 0 | 0.8 | 0 | 0 | 0 | 0 | 0.35 | 0 | 0 | 0 | 0
C=CC(=O)Nc1cccc(Nc2nc(Nc3ccc(OCCOC)cc3)ncc2F)c1 [Spebrutinib] | 0 | 1.6 | 5.7 | 2.2 | 2.9 | 0 | 0 | 0.9 | 2.3 | 0 | 2.9 | 0 | 0 | 0 | 1.5 | 3.1
CNC(=O)c1cc(Oc2ccc(NC(=O)Nc3ccc(Cl)c(C(F)(F)F)c3)c(F)c2)ccn1 [Regorafenib] | 3.7 | 2.9 | 2.6 | 0.8 | 0.3 | 2.6 | 2.3 | 2.6 | 1.9 | 0 | 2 | 1.9 | 4 | 0.3 | 1.3 | 5.2
COc1cc2c(Oc3ccc(NC(=O)C4(C(=O)Nc5ccc(F)cc5)CC4)cc3F)ccnc2cc1OCCCN1CCOCC1 [Foretinib] | 0 | 0 | 3.2 | 2.2 | 2.4 | 0.6 | 3.1 | 0.8 | 1.7 | 1.1 | 1.9 | 1.35 | 0.5 | 0.6 | 1.1 | 2.6
CCNC(=O)CCC/C=C\C[C@@H]1[C@@H](/C=C/[C@@H](O)CCc2ccccc2)[C@H](O)C[C@@H]1O [Bimatoprost] | 0 | 0 | 0 | 0 | 0 | 0 | 0 | 0 | 0 | 0 | 0 | 0 | 0 | 0 | 0 | 0
C[C@@H]1CN(CC(=O)Nc2ccc3c(c2)Cc2cccc(-c4cc(=O)cc(N5CCOCC5)o4)c2S3)C[C@H](C)O1 | 0.9 | 0 | 0.2 | 0 | 1 | 0.3 | 0.6 | 1 | 0.2 | 1.9 | 0.5 | 5.75 | 0.8 | 3.4 | 0 | 0.5
